Reference: US6894038B2, “Use of biogenic estriol diester prodrugs for the treatment of autoimmune diseases” (Schering Aktiengesellschaft, priority 2002, dated 2005)

Assays:
Lewis rat EAE model = assay: Lewis rat acute EAE model, clinical score; format: in vivo; settings: female Lewis rats, 1000 ug/rat s.c. on day 1 and day 15; chronic stage of disease; ANOVA vs vehicle p≦0.028; FIG. 1
[1] = tested on: experimental autoimmune encephalomyelitis (EAE); settings: levels equal to those found in pregnancy; Kim et al. 1999, Jansson et al. 1994; cited from earlier work
[2] = oral, 12 mg/day; Lindsay et al. 1979; cited from earlier work
[3] = tested on: CD4+ lymphocytes of MS patients; settings: concentrations at a similar level as in pregnancy; Correale et al. 1998; cited from earlier work
[4] = Heithecker et al., 1991; cited from earlier work
[5] = administered orally; cited from earlier work

Row | SMILES | clinical score (EAE) (Lewis rat EAE model) | amelioration of disease (EAE) [1] | osteoprotective effects [2] | secretion of anti-inflammatory cytokine IL-10 [3] | half-life [4] [h] | bioavailability [5]
1 | CCCCCC(=O)Oc1ccc2c(c1)CC[C@@H]1[C@@H]2CC[C@@]2(C)[C@H]1C[C@@H](O)[C@@H]2OC(=O)CCCCC [3,17β-di-n-hexanoyloxy-1,3,5(10)-estratriene-16α-ol] | efficacious in lowering the clinical score |  |  |  |  | 
2 | C[C@]12CC[C@@H]3c4ccc(O)cc4CC[C@H]3[C@@H]1C[C@@H](O)[C@@H]2O [estriol] |  | capable of ameliorating disease | not able to show the osteoprotective effects | stimulated | 1.5 to 5.3 | low
